Experimental data taken from patent US11517628B2, “Particles for spatiotemporal release of agents” (Yale University, priority 2018, dated 2022).

B1: free OVA: Ovalbumin, the model antigen, given soluble (protein, UniProt P01012 2-386, looked up)
Ovalbumin: GSIGAASMEFCFDVFKELKVHHANENIFYCPIAIMSALAMVYLGAKDSTRTQINKVVRFDKLPGFGDSIEAQCGTSVNVHSSLRDILNQITKPNDVYSFSLASRLYAEERYPILPEYLQCVKELYRGGLEPINFQTAADQARELINSWVESQTNGIIRNVLQPSSVDSQTAMVLVNAIVFKGLWEKAFKDEDTQAMPFRVTEQESKPVQMMYQIGLFRVASMASEKMKILELPFASGTMSMLVLLPDEVSGLEQLESIINFEKLTEWTSSNVMEERKIKVYLPRMKMEEKYNLTSVLMAMGITDVFSSSANLSGISSAESLKISQAVHAAHAEINEAGREVVGSAEAGVDAASVSEEFRADHPFLFCIKHIATNAVLFFGRCVSP

Test system: bone marrow-derived dendritic cells (BMDCs)
Assay: BMDC surface marker expression by FACS
Format: cell-based, mouse
Protocol: Bone marrow-derived dendritic cells (BMDCs) were generated as described by Zanoni et al. Generation of mouse bone marrow-derived dendritic cells (BM-DCs) (2009). Briefly, bone marrow progenitor cells were isolated from the femur of C57BL/6J mouse and cultured with media containing 20 ng/ml of GM-CSF. Cells were replenished with fresh media after 5 days of culture and collected after 48 hours of media replenishment. Naïve CD4 T cells and T cells were collected from OT-II splenocytes by using naïve CD4 T cell or CD3 T cell isolation kit (STEMCELL Technologies), respectively.
When ready for flow cytometry (FACS) analysis, cells were transferred to a 96-well U-bottom plate and spun at 500 g for 5 minutes. […]
FACS was performed by either LSR-II (Becton Dickinson) or Attune NxT flow cytometer. […] All FACS data was analyzed on FlowJo software (Tree Star Inc., Ashland, Oreg.).
DCs are one of the best antigen presenting cells that express costimulatory molecules and present antigens, which are modulated by mTOR signaling and antigen processing, respectively. […] DCs from the bone marrow (BMDCs) were harvested and treated with 100 ng/ml of free RAPA or 2 μg/ml of free OVA for either 72 hours or for 24 hours and analyzed by FACS. In all following experiments, BMDCs were gated on CD11c+, live cells, and surface markers of BMDCs were analyzed by flow cytometry. […]

| Molecule | Expression of surface markers PD-L1, CD80, CD86, and MHC II (free RAPA 100 ng/ml, 72 hours compared to 24 hours) | Expression of surface markers PD-L1, CD80, CD86, and MHC II (free OVA 2 μg/ml, 72 hours vs 24 hours) |
| --- | --- | --- |
| CO[C@H]1C[C@@H]2CC[C@@H](C)[C@@](O)(O2)C(=O)C(=O)N2CCCC[C@H]2C(=O)O[C@H]([C@H](C)C[C@@H]2CC[C@@H](O)[C@H](OC)C2)CC(=O)[C@H](C)/C=C(\C)[C@@H](O)[C@@H](OC)C(=O)[C@H](C)C[C@H](C)/C=C/C=C/C=C/1C [free RAPA, Rapamycin] | diminished expression of surface markers | – |
| B1 | – | no differences were observed |
